Data set [1] concerns M. avium. Kind of data set: Minimum inhibitory concentration, microbroth dilution, presence and absence of CF sputum. Type of data set: cell-based. As to conditions: Mycobacterium avium, M. avium B18101968; + SP (10% CF sputum). How it is done:
Minimum inhibitory concentration (MIC) testing was performed by microbroth dilution method using Mueller Hinton (MH) broth (Cation Adjusted) to the calcium and magnesium ion concentration recommended in the CLSI standard M7-A7 (Becton Dickinson). MIC testing also was performed by microbroth dilution method using 7H9 broth (Sigma-Aldrich). […] M. abscessus was grown on 7H11 agar plates (Sigma-Aldrich) for 3 days at 35-37° C. in ambient air (depending on bacterial strain), and M. avium was grown on agar 7H11 plates (Sigma-Aldrich) for 21-30 days at 37° C. in ambient air.
The colony forming units (CFUs) are taken from the agar plates and placed in either MH or 7H9 broth with 0.05% tween-80 and grown at 35-37° C. in ambient air until the optical density (OD) absorbance taken after 3 days (M. abscessus) or 12 (M. avium) of growth is an (OD) 0.08-0.1 (0.5 McFarland Standard). The bacterial cell suspensions are then confirmed by preparing them in saline, matching the (OD) 0.08-0.1 (0.5 McFarland Standard). […]
Minimum inhibitory concentrations assays were performed as described above. […] The MIC of the Composition of Example 1 was measured following the same CLSI protocol as described above, in the presence and absence of cystic fibrosis patient sputum. […]
On the technique in general: Dilution methods test growth across graded concentrations, often in twofold steps.

Data set [2] deals with M. abscessus strain 103. The data set can be described thus: Mouse model of M. abscessus in the SCID mouse. As to conditions: treatment end. The class given is in vivo.
For data set [3], the system named is M. avium strain 2285 rough. The data set can be described thus: Acute mouse model of M. avium infection in the Beige mouse. The class given is in vivo. The note with it: treatment end, Oral 20 mg/kg every other day from day 7.
Data set [4] has as its system M. avium 2285 rough. Kind of data set: Chronic Beige mouse model. As to conditions: Day 57, Oral 20 mg/kg, 14 treatments every other day from Day 28. The class given is in vivo, Beige mice.
The nature of data set [5]: Plasma toxicokinetics, 28-day inhalation study in dogs. The note with it: Beagle, dog, in vivo, inhaled or intranasal. How it is done:
The animals were studied for a period of 84 days.
All GLP canine study activities were performed by Lovelace Biomedical Research Institute (LBRI) under an IACUC approved protocol. Five groups of Beagle dogs were divided into study groups (Table 1) and exposed once daily by face-mask inhalation to filtered air (Group 1), vehicle (Group 2-0.5% polysorbate in saline), or CIS (Groups 3-5) for 28 consecutive days. The Low, Mid, and High doses (Groups 3, 4, and 5) were exposed to an average aerosol concentration of 0.209 mg/L for 30 min, 60 min and 120 min, respectively. The 28-day exposure period was followed by 28- and 56-day no exposure recovery periods (Recovery Study, Study Day (SD) 56 and 84 respectively). Blood was collected for toxicokinetic (TK) analysis from animals after both the first day of dose administration (Day 1; (0.5 hours (±5 minutes), 6 hours (±30 minutes), 12 hours (±30 minutes), 24 hours (±1 hour)), the last day of dose administration (SD28), and at […], SD56 and SD84, as indicated in Table 1. Main Study animals were necropsied one day post final exposure (SD29), while two male and two female Recovery Study animals were each necropsied on SD56 and SD84.
Aerosolized CIS was delivered to each dog by way of a 6-port aerosol exposure system using three Micro Mist compressed air jet nebulizers. (Supplementary Figure S1) All animals were conditioned to the face masks and restraint system before study. The exposure system and aerosol characteristics of the API and vehicle, including target aerosol concentration, concentration homogeneity, concentration repeatability, and aerosol size distribution were confirmed by LBRI prior to study. Dosing for each dog was measured for every dose delivered throughout study and calculated against individual dog weights.
Blood samples were immediately processed or held on wet ice for no more than 2 hours (hr) before being processed to plasma by centrifugation (1300 g, 2-8° C., ≥10 minutes), with plasma separated into appropriately labeled vials and stored frozen (−70 to −90° C.) until CFZ analysis.
Main study animals (3M/3F per timepoint) had blood samples collected at the following timepoints post-exposure on SD1 and SD28: 0.5 hr (±5 minutes), 6.0 hr (±30 minutes), 12 hr (±30 minutes), and 24 hr (±1 hr). Recovery animals (2M/2F per Recovery timepoint) from each group had blood collected on SD42, and prior to euthanasia on SD56 or SD84. The sample size for each group, sex, and timepoint is described in Table 1. Actual collection times were documented, and all animals in this study underwent scheduled sampling at their respective timepoints.
Retention time and peak area were determined by Analyst® Data Acquisition/Processing Software (Version 1.6.3). Analyte concentrations were obtained from a calibration curve constructed by plotting the peak area versus the nominal concentration using Analyst.
Clinical observations were descriptive while numerical evaluations (means and standard deviations) were used for all other parameters where possible. Toxicokinetic parameters were estimated for blood plasma using Phoenix WinNonlin version 8.3 software (Certara L.P.) with a non-compartmental analysis (NCA) consistent with aerosol administration (extravascular model) on each subject at each timepoint. NCA was only performed if there were quantifiable concentrations at two consecutive timepoints. Concentration values below the lower limit of quantitation of 2.00 ng/ml for plasma were labeled as below quantitative limits (BQL). These BQL values were treated as missing and excluded from calculation of descriptive statistics and toxicokinetic analysis.
Concentrations were used with full precision to three significant figures as received from bioanalytical data.

Data set [6] is described as follows: Lung and other tissue toxicokinetics, 28-day inhalation study in dogs. As to conditions: Beagle, in vivo, inhaled or intranasal, dog lung, SD29 to SD84, read-out: lung terminal elimination half-life (converted). From the text: Clofazimine was extracted by protein precipitation from dog plasma.
Data set [7] is described as follows: clinical. The note with it: human, plasma, inhaled.
Procedure: (§2) For placebo, subjects were treated with a nebulized sterile, isotonic saline solution consisting of 0.9% wt/v sodium chloride. […] The doses were administered by inhalation with a Pari e-Flow nebulizer system to investigate tolerability and pharmacokinetics (PK) in healthy human subjects. The subjects were monitored for any life-threatening or severe adverse events and samples of their blood were taken for analysis.
(§3) Participants resided at the clinical research unit until day 5 post-dose, during which time they were evaluated for safety and samples were collected for PK assessment. Participants returned on days 8 and 15 for additional safety assessments and sample collection. […] Participants resided at the clinical research unit until day 8 post-dose, during which time they were evaluated for safety and samples were collected for PK assessment. Participants returned on days 15 and 36 for additional safety assessments and sample collection.
The conditions of data set [8]: BCS class II drug; cited from earlier work.
For data set [9] the following is noted: cited from earlier work.
The nature of data set [10]: Pharmacokinetics of clofazimine delivered by nebulization in healthy subjects.
Procedure: as §2, §3
Data set [11] is described as follows: Safety and tolerability of clofazimine delivered by nebulization in healthy subjects. As to conditions: inhaled, nebulized.
Procedure: as §2, §3
The test system of data set [12] is A549. Kind of data set: Effects of surfactants on cell viability, MTT assay. Type of data set: cell-based, human. As to conditions: 1% in HBSS, positive control. How it is done:
(§1) Effects of surfactants on cell viability study: The effects of a surfactant such as polysorbate 80 (PS 80) containing various fatty acids components were used in this study to determine their effect on cell viability in the lungs upon administration of composition for lung delivery. In vitro experiments were carried out using three different human cell lines, i.e., human cell lines A549 (type II pulmonary epithelial cell derived), hAELVi, (human alveolar epithelial cell) and Calu-3 (lung adenocarcinoma cell). The cell lines were obtained from ATCC (Bethesda, MD) and maintained as recommended by the provider and seeded and incubated for the 24 hour test in 96-well plates containing 4×10^4/well in RPMI 1640 medium (Gibco). For testing, the medium as aspirated, the cells were washed twice with Hank's balanced Salt Solution (HBSS) at pH 7.4 and a 0.2 ml sample solution containing a surfactant was added to the cells. HBSS was used as negative control as well as HBSS containing 1% TritonX-100 as positive control. Surfactants under study were two, a super-refined grade PS 80 comprising a mixture of various fatty acid esters of about 70% to 85% total content being oleic acid and having other components including, mystiric, palmitic, palmitoleic, stearic, linoleic and linolenic acid esters. This super-refined PS 80 (Tween® 80, A) manufactured by Mallinckrodt Baker or Merck, and a second PS 80 (B, NOF Corporation) comprising an oleic acid component of about 99% were tested. In the experiments to determine the in vitro IC50 values, the cell lines were exposed to equal concentrations of the two surfactants in HBSS solution at the same concentrations and several dilutions of the test compounds after incubation for 4 hours at 37° C. with shaking, washed with HBSS. Cell viability was assessed based on the absorbance measurements at 550 nm obtained using the MTT assay as described in Metz et al., J. ALTEX, Jan. 29, 2020: V.2 doi:10.14573/altex.1910231. FIGS. 8 and 9, and Table 16 illustrate data obtained from the experiments.
For orientation: Tetrazolium assays rely on reduction of a dye to a coloured formazan, in cell work by metabolically active cells.

For data set [13], the system named is Calu-3. Described as above. Type of data set: cell-based, human. As to conditions: 1% in HBSS, positive control. How it is done:
as §1

For data set [14], the system named is hAELVi. The data set is described as above. The class given is cell-based, human. The note with it: 1% in HBSS, positive control. How it is done:
as §1

For orientation: MIC means the lowest concentration that inhibits growth of the organism. Broadly, the half-life is how long it takes for the measured level to halve.

Turning to `CC(C)/N=c1\cc2n(-c3ccc(Cl)cc3)c3ccccc3nc-2cc1Nc1ccc(Cl)cc1` [Clofazimine, N,5-bis(4-chlorophenyl)-3-propan-2-yliminophenazin-2-amine], the MIC in data set [1] was greater than 2 µg/mL. The figures for the “Liver Log10 CFU ± SEM” value in data set [2] (Oral 20 mg/kg every other day), in data set [3] and in [4] were 4.78 ± 0.18 Log10 CFU, 3.01 ± 0.03 Log10 CFU and 4.07 ± 0.04 Log10 CFU, respectively. The “Lung Log10 CFU ± SEM” value in [2] (Oral 20 mg/kg every other day) turned out to be 3.33 ± 0.17 Log10 CFU; in data set [3] it was 3.95 ± 0.03 Log10 CFU; in [4], 5.94 ± 0.12 Log10 CFU. Besides, the entries for the “Spleen Log10 CFU ± SEM” value in [2] (Oral 20 mg/kg every other day), in data set [3] and in data set [4] were 3.79 ± 0.10 Log10 CFU, 3.14 ± 0.03 Log10 CFU and 3.08 ± 0.04 Log10 CFU, respectively. The half-life was 8.99 h in data set [5] (female, 0.74 mg/kg); 9.43 h in data set [5] (female, 1.48 mg/kg); 7.23 h in data set [5] (female, 2.52 mg/kg); 7.19 h in [5] (male, 0.68 mg/kg); 8.95 h in data set [5] (male, 1.36 mg/kg); 7.89 h in data set [5] (male, 2.72 mg/kg). The half-life in [6] (female, 2.95 mg/kg, Low dose females) is 262 h; in [6] (male, 5.45 mg/kg, Mid dose males), 239 h; in [6] (male, 10.87 mg/kg, High dose males), 475 h; in data set [7], 290 h. For the same molecule, the solubility in water result in data set [8] is recorded as “practically insoluble in water”. In addition, the “absorption in humans after oral administration” value in data set [9] is on record as 45-62%. The “time to peak plasma concentrations” value in data set [10] (repeated administration, inhaled 30 or 90 mg daily for seven days) was in the range of 2 to 12 h; in data set [10] (single administration, inhaled 30, 60, 90 mg), 4 to 8 h. In addition, the “increase in AUC0-24” value was 1.6 fold in [10] (single administration, dose increase of 1.5-fold) and 2.3 fold in data set [10] (single administration, dose increase of 2-fold). In addition, the “Columbia Suicide Severity Rating Scale (C-SSRS)” value in data set [11] was “no suicidal ideation or behavior”. The ECG results in data set [11] was “no abnormal, clinically significant electrocardiogram”. Moreover, in data set [11], the skin discoloration entry is given as “no evidence of skin discoloration”.

For Triton X-100, the cell viability result in data set [12], in data set [13] and in data set [14] was “loss all viability” each time.

On to `NCC[C@H](O)C(=O)N[C@@H]1C[C@H](N)[C@@H](O[C@H]2O[C@H](CN)[C@@H](O)[C@H](O)[C@H]2O)[C@H](O)[C@H]1O[C@H]1O[C@H](CO)[C@@H](O)[C@H](N)[C@H]1O` [Amikacin, amikacin], for which, in data set [2] (SQ 150 mg/kg every other day), the “Liver Log10 CFU ± SEM” value amounted to 3.07 ± 0.10 Log10 CFU, the “Lung Log10 CFU ± SEM” value was 3.94 ± 0.11 Log10 CFU and the “Spleen Log10 CFU ± SEM” value is on record as 4.37 ± 0.31 Log10 CFU.

These data come from patent US20260069590A1, “METHOD FOR TREATING NONTUBERCULOUS MYCOBACTERIAL INFECTION” (priority 2022, published 2026).
